# “And” between values parts separate entries of the source, which are not always exact repeats. Identical values can stand only once.
# System: Swiss mice, Sarcoma 180 sc, mean tumor weight T/C
# Assay: NCI In Vivo Anticancer Drug Screen. Data for tumor model Sarcoma 180 (subcutaneous) in Swiss mice
# Settings: endpoint: mean tumor weight, higher = larger tumour
# Outline: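 Antitumor activity is assessed in mice with transplantable tumors. Treated (T) and vehicle control (C) groups are compared on survival or tumor size.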
# [1] = dose: 15.0 mg/kg/injection, schedule: Q01DX007 (ip), vehicle: other
# [2] = dose: 500.0 mg/kg/injection, schedule: Q01DX007 (sc), vehicle: steriod suspending solution
# [3] = dose: 12.5 mg/kg/injection, schedule: Q01DX007 (ip), vehicle: carboxymethylcellulose (CMC)
# [4] = dose: 25.0 mg/kg/injection, schedule: Q01DX007 (ip), vehicle: carboxymethylcellulose (CMC)
# [5] = dose: 200.0 mg/kg/injection, schedule: Q01DX007 (ip), vehicle: carboxymethylcellulose (CMC)
smiles,measurement,setting,value
c1ccc(N2N=C3N(c4ccccc4)C2N3c2ccccc2)cc1,T/C,[1],114 % of control
same,T/C,"dose: 31.0 mg/kg/injection, schedule: Q01DX007 (ip), vehicle: other",72 % of control
O=C(Nc1ccc(C2=NCCN2)cc1)c1ccc(C(=O)Nc2ccc(C3=NCCN3)cc2)c(Cl)c1,T/C,"dose: 18.0 mg/kg/injection, schedule: Q01DX007 (ip), vehicle: carboxymethylcellulose (CMC)",88 % of control
same,T/C,"dose: 20.0 mg/kg/injection, schedule: Q01DX007 (ip), vehicle: water",110 % of control
same,T/C,"dose: 37.0 mg/kg/injection, schedule: Q01DX007 (ip), vehicle: carboxymethylcellulose (CMC)",96 % of control
same,T/C,"dose: 40.0 mg/kg/injection, schedule: Q01DX007 (ip), vehicle: water",117 % of control
O=C(CBr)c1ccc(Br)cc1,T/C,"dose: 7.5 mg/kg/injection, schedule: Q01DX007 (ip), vehicle: other",63 % of control
same,T/C,[1],49 % of control and 73 % of control
same,T/C,"dose: 20.0 mg/kg/injection, schedule: Q01DX007 (ip), vehicle: other",42 % of control
CC1CCC2(NC1)OC1CC3C4CC=C5CC(OC6OC(CO)C(OC7OC(C)C(O)C(O)C7O)C(O)C6OC6OC(C)C(O)C(O)C6O)CCC5(C)C4CCC3(C)C1C2C (stereo not drawn),T/C,"dose: 150.0 mg/kg/injection, schedule: Q01DX007 (sc), vehicle: steriod suspending solution",115 % of control
same,T/C,"dose: 300.0 mg/kg/injection, schedule: Q01DX007 (sc), vehicle: steriod suspending solution",100 % of control
same,T/C,[2],79 % of control
O=P1(N(CCCl)CCCl)NCCCO1 (stereo not drawn),T/C,[3],50 % of control and 55 % of control
same,T/C,"dose: 15.0 mg/kg/injection, schedule: Q01DX007 (ip), vehicle: carboxymethylcellulose (CMC)",88 % of control
same,T/C,"dose: 23.88 mg/kg/injection, schedule: Q01DX007 (ip), vehicle: carboxymethylcellulose (CMC)",101 % of control
same,T/C,[4],70 % of control
same,T/C,"dose: 29.85 mg/kg/injection, schedule: Q01DX007 (ip), vehicle: carboxymethylcellulose (CMC)",97 % of control
same,T/C,"dose: 30.0 mg/kg/injection, schedule: Q01DX007 (ip), vehicle: carboxymethylcellulose (CMC)",25 % of control
same,T/C,"dose: 39.8 mg/kg/injection, schedule: Q01DX007 (ip), vehicle: carboxymethylcellulose (CMC)",72 % of control
same,T/C,"dose: 59.7 mg/kg/injection, schedule: Q01DX007 (ip), vehicle: carboxymethylcellulose (CMC)",34 % of control
same,T/C,"dose: 60.0 mg/kg/injection, schedule: Q01DX007 (ip), vehicle: carboxymethylcellulose (CMC)",4 % of control
same,T/C,"dose: 80.0 mg/kg/injection, schedule: Q01DX007 (ip), vehicle: carboxymethylcellulose (CMC)",4 % of control
same,T/C,"dose: 746.25 mg/kg/injection, schedule: Q#A X014 (ip), vehicle: carboxymethylcellulose (CMC)",65 % of control
same,T/C,"dose: 1492.5 mg/kg/injection, schedule: Q#A X014 (ip), vehicle: carboxymethylcellulose (CMC)",45 % of control
same,T/C,"dose: 2985.0 mg/kg/injection, schedule: Q#A X014 (ip), vehicle: carboxymethylcellulose (CMC)",7 % of control
same,T/C,"dose: 3731.0 mg/kg/injection, schedule: Q#A X014 (ip), vehicle: carboxymethylcellulose (CMC)",67 % of control
COC1C(OC(=O)/C=C/C=C/C=C/C=C/C(=O)O)CCC2(CO2)C1C1(C)OC1CC=C(C)C (stereo not drawn),T/C,"dose: 2.5 mg/kg/injection, schedule: Q#A X014 (ip), vehicle: saline",70 % of control
same,T/C,"dose: 5.0 mg/kg/injection, schedule: Q#A X014 (ip), vehicle: methylcellulose (MC)",76 % of control
same,T/C,"dose: 5.0 mg/kg/injection, schedule: Q#A X014 (ip), vehicle: saline",54 % of control
same,T/C,"dose: 6.0 mg/kg/injection, schedule: Q01DX007 (ip), vehicle: carboxymethylcellulose (CMC)",62 % of control
same,T/C,"dose: 6.3 mg/kg/injection, schedule: Q01DX007 (ip), vehicle: carboxymethylcellulose (CMC)",58 % of control
same,T/C,"dose: 10.0 mg/kg/injection, schedule: Q#A X014 (ip), vehicle: methylcellulose (MC)",50 % of control
same,T/C,"dose: 10.0 mg/kg/injection, schedule: Q#A X014 (ip), vehicle: saline",58 % of control
same,T/C,"dose: 12.0 mg/kg/injection, schedule: Q01DX007 (ip), vehicle: carboxymethylcellulose (CMC)",60 % of control
same,T/C,[3],84 % of control
same,T/C,"dose: 20.0 mg/kg/injection, schedule: Q#A X014 (ip), vehicle: methylcellulose (MC)",50 % of control
same,T/C,"dose: 20.0 mg/kg/injection, schedule: Q#A X014 (ip), vehicle: saline",51 % of control
same,T/C,[4],41 % of control and 53 % of control and 63 % of control
same,T/C,"dose: 40.0 mg/kg/injection, schedule: Q#A X014 (ip), vehicle: methylcellulose (MC)",38 % of control
same,T/C,"dose: 40.0 mg/kg/injection, schedule: Q#A X014 (ip), vehicle: saline",39 % of control
same,T/C,"dose: 80.0 mg/kg/injection, schedule: Q#A X014 (ip), vehicle: methylcellulose (MC)",19 % of control
same,T/C,[5],17 % of control and 36 % of control
CC(=O)[C@H]1CC[C@H]2[C@@H]3CCC4=CC(=O)CC[C@]4(C)[C@H]3CC[C@]12C,T/C,"dose: 125.0 mg/kg/injection, schedule: Q01DX007 (sc), vehicle: steriod suspending solution",89 % of control
same,T/C,"dose: 250.0 mg/kg/injection, schedule: Q01DX007 (sc), vehicle: steriod suspending solution",76 % of control
same,T/C,[2],61 % of control
same,T/C,"dose: 1000.0 mg/kg/injection, schedule: Q01DX007 (sc), vehicle: steriod suspending solution",79 % of control
CCOC(=O)c1ccc(N=NN(C)C)cc1,T/C,"dose: 62.0 mg/kg/injection, schedule: Q01DX007 (ip), vehicle: carboxymethylcellulose (CMC)",74 % of control
same,T/C,"dose: 125.0 mg/kg/injection, schedule: Q01DX007 (ip), vehicle: carboxymethylcellulose (CMC)",49 % of control
same,T/C,"dose: 187.0 mg/kg/injection, schedule: Q01DX007 (ip), vehicle: carboxymethylcellulose (CMC)",23 % of control
same,T/C,"dose: 250.0 mg/kg/injection, schedule: Q01DX007 (ip), vehicle: carboxymethylcellulose (CMC)",12 % of control
NC1(C(=O)OCc2ccccc2)CCCC1,T/C,"dose: 50.0 mg/kg/injection, schedule: Q01DX007 (ip), vehicle: carboxymethylcellulose (CMC)",87 % of control
same,T/C,"dose: 100.0 mg/kg/injection, schedule: Q01DX007 (ip), vehicle: carboxymethylcellulose (CMC)",76 % of control
same,T/C,[5],66 % of control
same,T/C,"dose: 333.0 mg/kg/injection, schedule: Q01DX007 (ip), vehicle: carboxymethylcellulose (CMC)",64 % of control
same,T/C,"dose: 400.0 mg/kg/injection, schedule: Q01DX007 (ip), vehicle: carboxymethylcellulose (CMC)",47 % of control
same,T/C,"dose: 500.0 mg/kg/injection, schedule: Q01DX007 (ip), vehicle: carboxymethylcellulose (CMC)",36 % of control
same,T/C,"dose: 750.0 mg/kg/injection, schedule: Q01DX007 (ip), vehicle: carboxymethylcellulose (CMC)",55 % of control
same,T/C,"dose: 800.0 mg/kg/injection, schedule: Q01DX007 (ip), vehicle: carboxymethylcellulose (CMC)",25 % of control
CC#CC(C)(O)CC (stereo not drawn),T/C,"dose: 77.0 mg/kg/injection, schedule: Q#A X014 (ip), vehicle: methylcellulose (MC)",79 % of control
same,T/C,"dose: 115.5 mg/kg/injection, schedule: Q#A X014 (ip), vehicle: methylcellulose (MC)",75 % of control
same,T/C,"dose: 175.0 mg/kg/injection, schedule: Q#A X014 (ip), vehicle: methylcellulose (MC)",51 % of control
same,T/C,"dose: 212.5 mg/kg/injection, schedule: Q#A X014 (ip), vehicle: methylcellulose (MC)",44 % of control
CN(C)C1=C(Cl)C(=O)C(=O)c2cccnc21,T/C,"dose: 6.25 mg/kg/injection, schedule: Q01DX007 (ip), vehicle: water",89 % of control
same,T/C,"dose: 12.5 mg/kg/injection, schedule: Q01DX007 (ip), vehicle: water",81 % of control
O=C1c2ccccc2-c2c3c(cc4ccnc1c24)OCO3,T/C,"dose: 45.0 mg/kg/injection, schedule: Q01DX007 (ip), vehicle: saline",81 % of control
same,T/C,"dose: 65.0 mg/kg/injection, schedule: Q01DX007 (ip), vehicle: saline",67 % of control
same,T/C,"dose: 100.0 mg/kg/injection, schedule: Q01DX007 (ip), vehicle: saline",75 % of control
same,T/C,"dose: 150.0 mg/kg/injection, schedule: Q01DX007 (ip), vehicle: saline",47 % of control
